According to article PMC8576438, “Identification and Functional Analysis of G Protein-Coupled Receptors in 20-Hydroxyecdysone Signaling From the Helicoverpa armigera Genome” (Frontiers in Cell and Developmental Biology, 2021):

Test system: T1, prolactin-releasing peptide receptor (PRRPR)
T1 construct: full ORF (XP_021184170.1) fused to GFP (PRRPR-GFP), in membranes of overexpressing HaEpi cells
Experiment: saturation binding to membranes of PRRPR-GFP-overexpressing HaEpi cells, bound […] quantified by enzyme immunoassay ([…]-EIA)
Set-up: species or system Helicoverpa armigera

## CC(C)(O)CC[C@@H](O)[C@](C)(O)[C@H]1CC[C@@]2(O)C3=CC(=O)[C@@H]4C[C@@H](O)[C@@H](O)C[C@]4(C)[C@H]3CC[C@]12C [20E, 20-hydroxyecdysone]
  Kd: 12.8 ± 2.19 nM
